Test results published in US20240294484A1, “HERBICIDAL ARYLDIHYDROFURANE CARBOXYLATES” (BASF SE, priority 2021, published 2024).

Experiments:
AMARE [1] = experiment: greenhouse pre-emergence herbicidal test; assay type: in vivo, Amaranthus retroflexus; settings: pre-emergence method, application rate 1,000 kg/ha; scale from 0 to 100
Text: (§1) The culture containers used were plastic flowerpots containing loamy sand with approximately 3.0% of humus as the substrate. The seeds of the test plants were sown separately for each species.
(§2) For the pre-emergence treatment, the active ingredients, which had been suspended or emulsified in water, were applied directly after sowing by means of finely distributing nozzles. The containers were irrigated gently to promote germination and growth and subsequently covered with transparent plastic hoods until the test plants had rooted. This cover caused uniform germination of the test plants, unless this had been impaired by the active ingredients. For the post-emergence treatment, the test plants were first grown to a height of 3 to 15 cm, depending on the plant habit, and only then treated with the active ingredients which had been suspended or emulsified in water. For this purpose, the test plants were either sown directly and grown in the same containers, or they were first grown separately as seedlings and transplanted into the test containers a few days prior to treatment.
(§3) Depending on the species, the test plants were kept at 10-25° C. or 20-35° C., respectively. The test period extended over 2 to 4 weeks. During this time, the test plants were tended, and their response to the individual treatments was evaluated.
(§4) Evaluation was carried out using a scale from 0 to 100. […]

ECHCG = experiment: greenhouse pre-emergence herbicidal test; assay type: in vivo, Echinocloa crus-galli; settings: pre-emergence method, application rate 1,000 kg/ha; scale from 0 to 100
Text: as §1, §2, §3, §4

AMARE [2] = experiment: greenhouse post-emergence herbicidal test; assay type: in vivo, Amaranthus retroflexus; settings: post-emergence method, application rate 1,000 kg/ha; scale from 0 to 100
Text: as §1, §2, §3, §4

AVEFA = experiment: greenhouse post-emergence herbicidal test; assay type: in vivo, Avena fatua; settings: post-emergence method, application rate 1,000 kg/ha; scale from 0 to 100
Text: as §1, §2, §3, §4

APESV = experiment: greenhouse pre-emergence herbicidal test; assay type: in vivo, Apera spica-venti; settings: pre-emergence method, application rate 1,000 kg/ha; scale from 0 to 100
Text: as §1, §2, §3, §4

## ethyl 4-(3,5-difluorophenyl)-2-methyl-3H-furan-2-carboxylic acid [compound 12]
AMARE [1]
  herbicidal activity against AMARE: good herbicidal activity (A good herbicidal activity is given at values of 65 to 90)
ECHCG
  herbicidal activity against ECHCG: good herbicidal activity (A good herbicidal activity is given at values of 65 to 90)

## CCOC(=O)C1CC(c2cc(F)cc(F)c2)=CO1 (stereo not drawn) [compound 11, ethyl 4-(3,5-difluorophenyl)-2,3-dihydrofuran-2-carboxylate]
AMARE [2]
  herbicidal activity against AMARE: very good herbicidal activity (a very good herbicidal activity is given at values of 90 to 100)

## O=C(O)C1(C(F)(F)F)CC(c2cc(F)cc(F)c2)=CO1 (stereo not drawn) [compound 17, 4-(3,5-difluorophenyl)-2-(trifluoromethyl)-3H-furan-2-carboxylic acid]
AVEFA
  herbicidal activity against AVEFA: very good herbicidal activity (a very good herbicidal activity is given at values of 90 to 100)

## ethyl 4-(3,5-dichlorophenyl)-2-methyl-3H-furan-2-carboxylic acid [compound 14]
APESV
  herbicidal activity against APESV: very good herbicidal activity (a very good herbicidal activity is given at values of 90 to 100)
ECHCG
  herbicidal activity against ECHCG: very good herbicidal activity (a very good herbicidal activity is given at values of 90 to 100)
